This passage reports XC50 results from ChEMBL document CHEMBL1157539, “Thousands of chemical starting points for antimalarial lead identification” (Nature, 2010).

One test concerns Plasmodium falciparum. Kind of test: GSK_TCMDC: Inhibition of Plasmodium falciparum 3D7 in whole erythrocytes, using parasite LDH activity as an index of growth. In kind it is functional, organism-based.
Details: not given
Take `C#CCOc1ccc(CC(C)NCC(O)c2cccc(C(F)(F)F)c2)cc1` (stereo unspecified): the XC50 is 1190 nM.

Consider `O=C(Nc1ccc(Cn2ncc(N3CCCNCC3)c(Cl)c2=O)cc1)Nc1ccc(-c2ccccc2)cc1`, for which the XC50 came to 815 nM.

The compound `Cc1[nH]c2cc(F)ccc2c(=O)c1Cc1ccc(Cl)cc1.Cc1[nH]c2cccc(F)c2c(=O)c1Cc1ccc(Cl)cc1` yielded an XC50 of 232 nM.

In turn, `O=C(/C=C/c1ccccc1Cl)NC1CCC(CN2CCC(c3c[nH]c4ccccc34)CC2)CC1` (stereo unspecified) yielded an XC50 of 849 nM.

Consider `Cc1ccc(C)c(C=CC(=O)NC2CCC(CN3CCC(c4c[nH]c5ccccc45)CC3)CC2)c1` (stereo unspecified), for which the XC50 amounted to 698 nM.

The test is the same for the next values; noted with them: Plasmodium falciparum, 3D7.
As to `Cc1cc(I)ccc1Nc1nc2nonc2nc1Nc1ccc(I)cc1C`, the XC50 turned out to be 510 nM.

`Cc1cccc(-c2nn(-c3ccccc3)cc2C(=O)Nc2nnc(C)o2)c1` showed an XC50 of 1160 nM.

`C[C@H](Cc1ccc(CCc2ccc(C[C@@H](C)NC[C@H](O)c3cccc(Cl)c3)cc2)cc1)NC[C@H](O)c1cccc(Cl)c1` registered an XC50 of 935 nM.

In turn, `CN1CCN(Cc2ccc(-c3ccc4c(Nc5ccc(Oc6ccccn6)cc5)ccnc4c3)o2)CC1` registered an XC50 of 145 nM.

`COc1cc(Cc2cnc(N)nc2N)ccc1OCc1ccc(-c2csnn2)cc1` returned an XC50 of 628 nM.

Regarding `C#CCOc1ccc(CC(C)NCC(O)c2cccc(C(F)(F)F)c2)cc1` (stereo unspecified), the XC50 stood at 1030 nM.

The compound `CC(=O)Nc1ccc(C(=O)Nc2cccc(-c3ccc(-c4nc5ccccc5[nH]4)s3)c2)cn1` showed an XC50 of 180 nM.

The compound `COc1cc2ncnc(Nc3ccc(OCc4ccccc4Br)c(Cl)c3)c2cc1OC` yielded an XC50 of 1280 nM.

Compound `N#Cc1ccc(CN2CCCN(c3ccc(NC(=O)c4ccc(F)cc4)cc3)CC2)cc1` yielded an XC50 of 1280 nM.

`O=C(/C=C/c1ccc(Cl)c(Cl)c1)NC1CCC(CN2CCC(c3nc4cc(O)ccc4[nH]3)CC2)CC1` (stereo unspecified) yielded an XC50 of 241 nM.

`Cc1[nH]c2cc(F)ccc2c(=O)c1Cc1ccc(Cl)cc1.Cc1[nH]c2cccc(F)c2c(=O)c1Cc1ccc(Cl)cc1` yielded an XC50 of 348 nM.

`CCOC(=O)c1c[nH]c2c(sc3cc(OC)ccc32)c1=O`: the XC50 was 387 nM.

In the case of `c1cc(CN2CCN(CCN3CCOCC3)CC2)cc(-c2cccc(-c3nc4ccccc4[nH]3)c2)c1`, the XC50 stood at 236 nM.

As for `CN1CCC(N2CCN(Cc3cccc(-c4ccc(-c5nc6cc(C(F)(F)F)ccc6[nH]5)cc4)c3)CC2)CC1`, the XC50 turned out to be 140 nM.

In turn, `O=C(/C=C/c1ccccc1Cl)NC1CCC(CN2CCC(c3c[nH]c4ccccc34)CC2)CC1` (stereo unspecified) came in with an XC50 of 603 nM.

As for `COc1ccc(NC(=O)Nc2ccc(-c3ccccc3)cc2)cc1Cn1nc(Cl)c(N2CCCNCC2)cc1=O`, the XC50 was determined as 364 nM.

Consider `Nc1ccc2[nH]cc(C3CCN(CCC4CCN(C(=O)/C=C/c5ccc(Cl)c(Cl)c5)CC4)CC3)c2n1`, for which the XC50 is 737 nM.

Take `O=S(=O)(NCCN1CCCC1)c1ccc(-c2ccc(CNCc3ccsc3)cc2)cc1F`: the XC50 worked out at 810 nM.

On to `N#CCCN1CCN(Cc2cccc(-c3ccc(-c4nc5cc(C(F)(F)F)ccc5[nH]4)cc3)c2)CC1`, for which the XC50 is 744 nM.

Turning to `CCCCCCOc1ccc(/C(N)=N\Cc2ccccc2)c2c1CCCC2`, the XC50 stood at 1270 nM.

As for `COc1ccc2nc(C)cc(N/N=C/C=C/c3ccccc3)c2c1`, the XC50 stood at 701 nM.

The compound `CC(C)CCNC(=O)C1Cc2c([nH]c3ccc(Br)cc23)C2(CCN(Cc3ccccc3)CC2)N1` (stereo unspecified) came in with an XC50 of 817 nM.

For `CCc1c(CCNCCCCCCNCCc2ccc(Br)cc2)ccc(OC)c1OC`, the XC50 is 232 nM.

Compound `COc1ccc(CCn2c(=N)c(C(=O)NCc3cccnc3)cc3c(=O)n4ccccc4nc32)cc1` yielded an XC50 of 883 nM.

As to `Cc1cccc2nc(-c3ccc(-c4cccc(NC(=O)NCc5cccc(F)c5)c4)cc3)[nH]c12`, the XC50 was 853 nM.

Compound `COc1cc(-c2nc(-c3ccncc3)c(-c3ccc4c(c3)CCC4=NO)[nH]2)ccc1OCCN1CCN(C)CC1` returned an XC50 of 756 nM.

The compound `Cc1ccc(C)c(C=CC(=O)NC2CCC(CN3CCC(c4c[nH]c5ccccc45)CC3)CC2)c1` (stereo unspecified) returned an XC50 of 765 nM.

For `COC(=O)/C=C/c1ccc(CC(C)NCC(O)c2cccc(Cl)c2)cc1` (stereo unspecified), the XC50 turned out to be 751 nM.

Compound `Cc1cc(N)nc2ccc(-c3cccc(CN)c3)cc12` had an XC50 of 707 nM.

`O=C(Nc1ccc(Cl)cc1)Nc1cccc(-c2ccc(-c3nc4cc(F)ccc4[nH]3)cc2)c1` yielded an XC50 of 47.5 nM.

For the compound `Cc1cc(NC(c2ccc(Cl)cc2)c2ccc3cccnc3c2O)no1` (stereo unspecified), the XC50 came out at 1090 nM.
